Reference: patent publication US10597388B2, “Pyridazinone herbicides” (FMC CORPORATION, priority 2014, dated 2020)

Key:
Type in all cases: in vivo
[1] = test system: wheat (Triticum aestivum); experiment: Test A greenhouse herbicide test, pre- and postemergence; conditions: Postemergence; for Wheat plant response rating: 0 to 100 scale, 0 is no effect, 100 is complete control
Excerpt: (§1) Seeds of plant species selected from barnyardgrass (Echinochloa crus-galli), kochia (Kochia scoparia), ragweed (common ragweed, Ambrosia elatior), ryegrass, Italian (Italian ryegrass, Lolium multiflorum), crabgrass, large (large crabgrass, Digitaria sanguinalis), foxtail, giant (giant foxtail, Setaria faberii), momingglory (Ipomoea spp.), pigweed (Amaranthus retroflexus), velvetleaf (Abutilon theophrasti), wheat (Triticum aestivum), and corn (Zea mays) were planted into a blend of loam soil and sand and treated preemergence with a directed soil spray using test chemicals formulated in a non-phytotoxic solvent mixture which included a surfactant.
(§2) At the same time, plants selected from these crop and weed species and also blackgrass (Alopecurus myosuroides), and galium (catchweed bedstraw, Galium aparine) were planted in pots containing the same blend of loam soil and sand and treated with postemergence applications of test chemicals formulated in the same manner. Plants ranged in height from 2 to 10 cm and were in the one- to two-leaf stage for the postemergence treatment. Treated plants and untreated controls were maintained in a greenhouse for approximately 10 d, after which time all treated plants were compared to untreated controls and visually evaluated for injury. Plant response ratings, summarized in Table A, are based on a 0 to 100 scale where 0 is no effect and 100 is complete control. A dash (-) response means no test result.

corn (Zea mays) = experiment: as above; conditions: Postemergence; for Corn plant response rating: 0 to 100 scale, 0 is no effect, 100 is complete control
Excerpt: as §1, §2

[2] = test system: pigweed (Amaranthus retroflexus); experiment: as above
Excerpt: as §1, §2

[3] = test system: barnyardgrass (Echinochloa crus-galli); experiment: as above
Excerpt: as §1, §2

[4] = test system: foxtail, giant (giant foxtail, Setaria faberii); experiment: as above
Excerpt: as §1, §2

kochia (Kochia scoparia) = experiment: as above
Excerpt: as §1, §2

[5] = test system: ryegrass, Italian (Italian ryegrass, Lolium multiflorum); experiment: as above
Excerpt: as §1, §2

[6] = test system: ragweed (common ragweed, Ambrosia elatior); experiment: as above
Excerpt: as §1, §2

[7] = test system: blackgrass (Alopecurus myosuroides); experiment: Test A greenhouse herbicide test, postemergence; conditions: for Blackgrass plant response rating: 0 to 100 scale, 0 is no effect, 100 is complete control
Excerpt: as §2

[8] = test system: galium (catchweed bedstraw, Galium aparine); experiment: Test A greenhouse herbicide test, postemergence; conditions: for Galium plant response rating: 0 to 100 scale, 0 is no effect, 100 is complete control
Excerpt: as §2

[9] = 125 g ai/ha, 0 to 100 scale where 0 is no effect and 100 is complete control
[10] = Postemergence, 125 g ai/ha, 0 to 100 scale where 0 is no effect and 100 is complete control
[11] = Postemergence, 500 g ai/ha, 0 to 100 scale, 0 is no effect, 100 is complete control
[12] = Preemergence, 125 g ai/ha, 0 to 100 scale where 0 is no effect and 100 is complete control
[13] = Preemergence, 500 g ai/ha, 0 to 100 scale, 0 no effect, 100 complete control
[14] = Preemergence, 500 g ai/ha, 0 to 100 scale where 0 is no effect and 100 is complete control
[15] = 500 g ai/ha, visual rating after approx. 10 d, 0 to 100 scale (0 no effect, 100 complete control)
[16] = Postemergence, 500 g ai/ha, visual rating after approx. 10 d, 0 to 100 scale (0 no effect, 100 complete control)
[17] = Postemergence, 1000 g ai/ha, 0 to 100 scale, 0 is no effect, 100 is complete control
[18] = Preemergence, 1000 g ai/ha, 0 to 100 scale, 0 no effect, 100 complete control

CCc1ccc2ccccc2c1-c1c(OC(=O)OC(C)C)c(C)nn(C)c1=O [Compound 39]
Plant response rating, Wheat [1, 9]: 0
Wheat plant response rating ([1]; 500 g ai/ha): 10
Plant response rating, Corn (corn (Zea mays); [9]): 0
Corn plant response rating (corn (Zea mays); 500 g ai/ha): 0
Plant response rating, Pigweed [2, 10]: 50
Pigweed plant response rating [2, 11]: 80
Pigweed plant response rating [2, 12]: 80
Plant response rating, Pigweed [2, 13]: 80
Plant response rating, Barnyardgrass [3, 10]: 0
Barnyardgrass plant response rating [3, 11]: 10
Barnyardgrass plant response rating [3, 12]: 0
Plant response rating, Barnyardgrass [3, 13]: 10
Plant response rating, Foxtail, Giant [4, 10]: 0
Foxtail, Giant plant response rating [4, 11]: 60
Foxtail, Giant plant response rating [4, 12]: 0
Plant response rating, Foxtail, Giant [4, 13]: 60
Plant response rating, Kochia (kochia (Kochia scoparia); [10]): 30
Kochia plant response rating (kochia (Kochia scoparia); [11]): 30
Kochia plant response rating (kochia (Kochia scoparia); [12]): 0
Plant response rating, Kochia (kochia (Kochia scoparia); [13]): 0
Plant response rating, Ryegrass, Italian [5, 10]: 90
Ryegrass, Italian plant response rating [5, 11]: 60
Ryegrass, Italian plant response rating [5, 12]: 40
Plant response rating, Ryegrass, Italian [5, 13]: 50
Plant response rating, Ragweed [6, 10]: 50
Ragweed plant response rating [6, 11]: 90
Ragweed plant response rating [6, 12]: 10
Plant response rating, Ragweed [6, 13]: 70
Plant response rating, Blackgrass [7, 9]: 30
Blackgrass plant response rating ([7]; 500 g ai/ha): 70
Plant response rating, Galium [8, 9]: 90
Galium plant response rating ([8]; 500 g ai/ha): 100

Cc1ccc2ccccc2c1-c1c(OC(=O)C2CC2)c(C)nn(C)c1=O [Compound 76]
Plant response rating, Wheat [1, 9]: 0
Wheat plant response rating ([1]; 500 g ai/ha): 0
Plant response rating, Corn (corn (Zea mays); [9]): 0
Corn plant response rating (corn (Zea mays); 500 g ai/ha): 0
Plant response rating, Pigweed [2, 10]: 10
Pigweed plant response rating [2, 11]: 20
Pigweed plant response rating [2, 12]: 20
Plant response rating, Pigweed [2, 14]: 50
Plant response rating, Barnyardgrass [3, 10]: 0
Barnyardgrass plant response rating [3, 11]: 30
Barnyardgrass plant response rating [3, 12]: 0
Plant response rating, Barnyardgrass [3, 13]: 30
Plant response rating, Foxtail, Giant [4, 10]: 0
Foxtail, Giant plant response rating [4, 11]: 20
Foxtail, Giant plant response rating [4, 12]: 0
Plant response rating, Foxtail, Giant [4, 14]: 20
Plant response rating, Kochia (kochia (Kochia scoparia); [10]): 20
Kochia plant response rating (kochia (Kochia scoparia); [11]): 40
Kochia plant response rating (kochia (Kochia scoparia); [12]): 0
Plant response rating, Kochia (kochia (Kochia scoparia); [14]): 0
Plant response rating, Ryegrass, Italian [5, 10]: 40
Ryegrass, Italian plant response rating [5, 11]: 80
Ryegrass, Italian plant response rating [5, 12]: 50
Plant response rating, Ryegrass, Italian [5, 14]: 70
Plant response rating, Ragweed [6, 10]: 0
Ragweed plant response rating [6, 11]: 20
Ragweed plant response rating [6, 12]: 0
Plant response rating, Ragweed [6, 14]: 50
Plant response rating, Blackgrass [7, 9]: 0
Blackgrass plant response rating ([7]; 500 g ai/ha): 10
Plant response rating, Galium [8, 9]: 70
Galium plant response rating ([8]; 500 g ai/ha): 80

COc1nn(C)c(=O)c(-c2c(C)sc3ccccc23)c1OC(C)=O [Compound 141]
Plant response rating, Wheat [1, 9]: 0
Plant response rating, Wheat [1, 15]: 0
Plant response rating, Corn (corn (Zea mays); [9]): 0
Plant response rating, Corn (corn (Zea mays); [15]): 0
Plant response rating, Pigweed [2, 10]: 0
Plant response rating, Pigweed [2, 16]: 30
Pigweed plant response rating [2, 12]: 40
Plant response rating, Pigweed [2, 14]: 60
Plant response rating, Barnyardgrass [3, 10]: 20
Plant response rating, Barnyardgrass [3, 16]: 50
Barnyardgrass plant response rating [3, 12]: 50
Plant response rating, Barnyardgrass [3, 14]: 90
Plant response rating, Foxtail, Giant [4, 10]: 20
Plant response rating, Foxtail, Giant [4, 16]: 70
Foxtail, Giant plant response rating [4, 12]: 30
Plant response rating, Foxtail, Giant [4, 14]: 70
Plant response rating, Kochia (kochia (Kochia scoparia); [10]): 10
Plant response rating, Kochia (kochia (Kochia scoparia); [16]): 30
Kochia plant response rating (kochia (Kochia scoparia); [12]): 0
Plant response rating, Kochia (kochia (Kochia scoparia); [14]): 60
Plant response rating, Ryegrass, Italian [5, 10]: 70
Plant response rating, Ryegrass, Italian [5, 16]: 90
Plant response rating, Ryegrass, Italian [5, 14]: 80
Plant response rating, Ragweed [6, 10]: 60
Plant response rating, Ragweed [6, 16]: 40
Plant response rating, Ragweed [6, 14]: 60
Plant response rating, Blackgrass [7, 9]: 0
Plant response rating, Blackgrass [7, 15]: 50
Plant response rating, Galium [8, 9]: 70
Plant response rating, Galium [8, 15]: 90

CC(=O)COc1c(C)nn(C)c(=O)c1-c1cccc2ccccc12 [Compound 178]
Wheat plant response rating ([1]; 1000 g ai/ha): 0
Corn plant response rating (corn (Zea mays); 1000 g ai/ha): 0
Pigweed plant response rating [2, 17]: 70
Plant response rating, Pigweed [2, 18]: 0
Barnyardgrass plant response rating [3, 17]: 0
Plant response rating, Barnyardgrass [3, 18]: 0
Foxtail, Giant plant response rating [4, 17]: 0
Plant response rating, Foxtail, Giant [4, 18]: 0
Kochia plant response rating (kochia (Kochia scoparia); [17]): 10
Plant response rating, Kochia (kochia (Kochia scoparia); [18]): 0
Ryegrass, Italian plant response rating [5, 17]: 70
Plant response rating, Ryegrass, Italian [5, 18]: 60
Ragweed plant response rating [6, 17]: 60
Plant response rating, Ragweed [6, 18]: 0
Blackgrass plant response rating ([7]; 1000 g ai/ha): 30
Galium plant response rating ([8]; 1000 g ai/ha): 70

COC(=O)COc1c(C)nn(C)c(=O)c1-c1cccc2ccccc12 [Compound 182]
Wheat plant response rating ([1]; 1000 g ai/ha): 0
Corn plant response rating (corn (Zea mays); 1000 g ai/ha): 0
Pigweed plant response rating [2, 17]: 0
Plant response rating, Pigweed [2, 18]: 0
Barnyardgrass plant response rating [3, 17]: 0
Plant response rating, Barnyardgrass [3, 18]: 0
Foxtail, Giant plant response rating [4, 17]: 0
Plant response rating, Foxtail, Giant [4, 18]: 0
Kochia plant response rating (kochia (Kochia scoparia); [17]): 0
Plant response rating, Kochia (kochia (Kochia scoparia); [18]): 0
Ryegrass, Italian plant response rating [5, 17]: 0
Plant response rating, Ryegrass, Italian [5, 18]: 0
Ragweed plant response rating [6, 17]: 30
Plant response rating, Ragweed [6, 18]: 0
Blackgrass plant response rating ([7]; 1000 g ai/ha): 10
Galium plant response rating ([8]; 1000 g ai/ha): 50
